According to US9586896B2, “Nitroxyl donors with improved therapeutic index” (Cardioxyl Pharmaceuticals, Inc., priority 2013, dated 2017):

How the values were obtained:
[1] = Nitroxyl production via N2O quantification (GC headspace analysis); format: physicochemical; settings: PBS, 37° C.
From the text: Nitrous oxide (N2O) is produced via the dimerization and dehydration of HNO, and is the most common marker for nitroxyl production (Fukuto et al., Chem. Res. Toxicol. 18:790-801 (2005)). […] Using either nitrous oxide gas or Angeli's salt (AS) as a standard, the relative amounts of N2O released from compounds of the disclosure was examined via gas chromatography (GC) headspace analysis.
A procedure for determining the relative amounts of N2O released from compounds of the disclosure is as follows. GC was performed on an Agilent gas chromatograph equipped with a split injector (10:1 splitting), microelectron capture detector, and a HP-MOLSIV 30 m×0.32 mm×25 μm molecular sieve capillary column. Helium was used as the carrier (4 mL/min) gas and nitrogen was used as the make-up (20 mL/min) gas. The injector oven and the detector oven were kept at 200° C. and 325° C., respectively. All nitrous oxide analyses were performed with the column oven held at a constant temperature of 200° C.
All gas injections were made using an automated headspace analyzer. Vial pressurization was 15 psi. The analyzer's sample oven, sampling valve, and transfer line were kept at 40° C., 45° C., and 50° C., respectively. The oven stabilization, vial pressurization, loop fill, loop equilibration, and sample injection times were 1.00 min., 0.20 min., 0.20 min., 0.05 min., and 1.00 min., respectively.
All determinations used a batch of nominal 20 mL headspace vials with volumes pre-measured for sample uniformity (actual vial volume varied by ≦2.0% relative standard deviation (n=6)). The average vial volume for the batch was determined from six randomly-selected vials by calculating the weight difference between the capped and sealed empty (i.e., air-filled) vial and the capped and sealed deionized water-filled vial using the known density of deionized water, then averaging. Blanks were prepared by sealing and capping two vials then purging each for 20 seconds with a gentle argon stream. […]

[2] = test system: normal canines; assay: Hemodynamic efficacy (PV loop analysis) in normal canines; format: in vivo, beagle dogs; settings: i.v. infusion
Experimental: The cardiovascular effects of nitroxyl donors were examined by means of pressure-volume (PV) curve (loops) analysis in conscious, sling-restrained beagle dogs. Animals were allowed free access to drinking water and a commercial canine diet under standard laboratory conditions. Fluorescent lighting was provided via an automatic timer for approximately 12 hours per day. On occasion, the dark cycle was interrupted intermittently due to study-related activities. Temperature and humidity were monitored and recorded daily and maintained to the maximum extent possible between 64° F. and 84° F. and 30% to 70%, respectively. The dogs were acclimated for a period of at least 1 week prior to surgery. Following surgery and recovery the animals were acclimated to sling restraint for a period up to 4.5 hours. Animals were fasted overnight prior to surgery.
Once a stable (surgical) plane of anesthesia had been established, a left-thoracotomy was performed (under strict aseptic conditions) and each animal was chronically instrumented with sono-micrometry crystals providing left-ventricular (LV) dimensions/volume. Additionally, a fluid-filled catheter and a solid-state monometer were placed in the left ventricle for pressure monitoring. A fluid-filled catheter was placed in the right ventricle (RV) and the aorta (Ao) for pressure monitoring/test article administration. […] The catheters/wires were aseptically tunneled and externalized between the scapulae. Over the course of the study, fluid-filled catheters were regularly (at least once weekly) flushed with a locking-solution in order to prevent both clotting and bacterial growth (2-3 mL of Taurolidine-Citrate solution, TCS-04; Access Technologies).
The animals (normal or heart failure) were studied during treatment with both vehicle (control) and a nitroxyl donor (either CXL-1020, a compound of formula (1) or a compound of formula (2)). At each dosing period, conscious sling-restrained animals were continuously monitored for up to two to three hours. Following hemodynamic stabilization, infusion of the vehicle was started. […] Infusion of the vehicle was continued and after 30 min another (baseline) set of hemodynamic data was collected. Following collection of baseline hemodynamic data, infusion of the nitroxyl donor compound being tested was initiated and derived hemodynamic/functional parameters were obtained/performed at up to four (4) time points selected from the following: at 30, 60, 90, 120, and 180 minutes after the onset of vehicle/test compound infusion. For the placebo or time-control treatment group, each animal was administered an infusion of an appropriate placebo for up to 180 minutes. In all cases, the test compound was delivered at a constant intravenous infusion rate of 1 mL/kg/hr and was compared at a molar equivalent dose rate.
The resulting left-ventricular pressure and volume data were analyzed in order to generate relationships representing the contractile and energetic state of the myocardium. Systolic arterial pressure (SAP), diastolic arterial pressure (DAP), and mean arterial pressure (MAP) were collected. Left-ventricular mechanical and/or geometrical indices were obtained from the pressure (ESP, EDP, dP/dt max/min, time-constant of relaxation-tau [based on mono-exponential decay with non-zero asymptote]) and volume (end-systolic volume (ESV), end diastolic volume (EDV), stroke volume (SV)) signal. In addition, the following measurements were derived from left-ventricular pressure-volume data (PV loops) generated during brief periods of preload reduction: pressure volume area (PVA) and stroke work (SW), end-systolic (ESPVR) and end-diastolic (EDPVR) pressure volume relationships, and end systolic pressure and stroke volume relationship (arterial elastance (Ea)). Representative data obtained from studies in normal dogs and heart failure dogs is shown in Table 5 and Table 6, respectively. A SVR (systemic vascular resistance) decrease correlates with vasodilation.

[3] = dose rate 50 (μmol/kg/min [sic])

Cc1ccc(S(=O)(=O)NO)o1 [Compound (1), N-Hydroxy-5-methylfuran-2-sulfonamide]
Relative N2O Yield (90 minute incubation) [1]: 52%
EDV (% Change from Baseline) [2, 3]: −6 ± 2%
ESP (% Change from Baseline) [2, 3]: −18 ± 2%
ESPVR (% Change from Baseline) [2, 3]: 19 ± 1%
HR (% Change from Baseline) [2, 3]: −4 ± 2%
PRSW (% Change from Baseline) [2, 3]: 12 ± 1%
SW (% Change from Baseline) [2, 3]: −11 ± 4%
Tau (% Change from Baseline) [2, 3]: −6 ± 1%

CS(=O)(=O)c1cccc(S(=O)(=O)NO)c1 [(2), N-Hydroxy-3-methanesulfonylbenzene-1-sulfonamide]
Relative N2O Yield (90 minute incubation) [1]: 82%
Relative N2O Yield (360 minute incubation) ([1]; 360 minute incubation): 94%
Tau (% Change from Baseline) ([2]; dose rate 100 (μmol/kg/min [sic])): −6.40 ± 7.11%
